Each structure is given as a SMILES string. In brackets after ≈: the same amount, converted by molar mass. Where two headings read alike, the source gives them in different places.

Data set [1] in a line: Solubility limits of LCA and UDCA in organic solvents. The class given is physicochemical. The conditions noted are these: organic solvent, organic solvent or mixture, thermodynamic from solid, read-out: solubility limit. Here is the method: The organic solvent was added in increments of 100 μL, and the mixture was treated by shaking in a vortex shaker and optionally in an ultrasonic bath. It was visually assessed as to whether a clear solution was present.

Data set [2] relates to Catellatospora citrae (DSM-44097). As to the kind of experiment: Test of bacterial strains for 7-hydroxylation of deoxycholic acid. The class given is cell-based. Particulars: deoxycholic acid 0.5 mM, cultured up to 72 h, HPLC and GC/MS. The text has this:
(§1) The following bacterial strains were obtained from the German Strain Collection of Microorganisms and Cell Cultures (DSMZ [Deutsche Stammsammlung für Mikroorganismen und Zellkulturen]): Saccharothrix longispora (DSM-43749), Catellatospora citrae (DSM-44097), Streptomyces hygroscopicus subsp. hygroscopicus (DSM-40578) and Asanoa ferruginea (DSM-44099). The strains were cultivated under standard conditions as recommended by DSMZ. […] After a centrifugation step, supernatants of the cultures were extracted with ethyl acetate and analyzed by HPLC and GC/MS.

The test system of data set [3] is Saccharothrix longispora (DSM-43749). The description is as above. The class given is cell-based. The conditions noted are these: deoxycholic acid 0.5 mM, cultured up to 72 h, HPLC and GC/MS.
Text: as §1

The test system of data set [4] is Asanoa ferruginea (DSM-44099). The description is as above. The class given is cell-based. Particulars: deoxycholic acid 0.5 mM, cultured up to 72 h, HPLC and GC/MS.
Text: as §1

The subject of data set [5] is Streptomyces hygroscopicus subsp. hygroscopicus (DSM-40578). The data set is described as above. The class given is cell-based. Particulars: deoxycholic acid 0.5 mM, cultured up to 72 h, HPLC and GC/MS.
Text: as §1

Turning to `C[C@H](CCC(=O)O)[C@H]1CC[C@H]2[C@@H]3[C@@H](O)C[C@@H]4C[C@H](O)CC[C@]4(C)[C@H]3CC[C@]12C` [UDCA, ursodeoxycholic acid], the solubility (commonly how much of the substance goes into solution per volume) in data set [1] (2-butanol) is 53 mg/mL (≈ 135 mM); in data set [1] (2-butanone) it was 10 mg/mL (≈ 25.5 mM); in data set [1] (CH2Cl2) it was 1.1 mg/mL (≈ 2.8 mM); in data set [1] (CHCl3/phenol) it was 21.3 mg/mL (≈ 54.3 mM); in data set [1] (CHCl3), 2.9 mg/mL (≈ 7.39 mM); in data set [1] (DMA) it was more than 500 mg/mL. The solubility in data set [1] (DMF) was more than 500 mg/mL; in data set [1] (DMSO), more than 500 mg/mL; in data set [1] (Et2O), 2 mg/mL (≈ 5.09 mM); in data set [1] (Me—THF), 63.4 mg/mL (≈ 161 mM); in data set [1] (THF) it was 259 mg/mL (≈ 660 mM); in data set [1] (acetone), 8.8 mg/mL (≈ 22.4 mM). Also, the solubility is less than 0.7 mg/mL in data set [1] (cyclohexane); 92.6 mg/mL (≈ 236 mM) in data set [1] (dioxane); 54.5 mg/mL (≈ 139 mM) in data set [1] (ethanol); 2.9 mg/mL (≈ 7.39 mM) in data set [1] (ethyl acetate (EtOAc)); 16.6 mg/mL (≈ 42.3 mM) in data set [1] (ethylene glycol); less than 0.8 mg/mL in data set [1] (hexane/EtOAc + 0.01% trifluoroacetic acid (TFA)). The solubility in data set [1] (hexane/IPA 7:3 + 0.02% TFA) is 12 mg/mL; in data set [1] (hexane/IPA 8:2 + 0.01% TFA), 4 mg/mL; in data set [1] (i Pr2O), less than 0.5 mg/mL; in data set [1] (isopropanol (IPA)), 47.5 mg/mL (≈ 121 mM); in data set [1] (methanol), more than 100 mg/mL; in data set [1] (methyl isobutyl alcohol (MIBA)) it was 35.7 mg/mL (≈ 90.9 mM). Further, the solubility in data set [1] (methyl isobutyl ketone (MIBK)) is 4.4 mg/mL (≈ 11.2 mM); in data set [1] (toluene), less than 1 mg/mL.
Consider `C[C@H](CCC(=O)O)[C@H]1CC[C@H]2[C@@H]3CC[C@@H]4C[C@H](O)CC[C@]4(C)[C@H]3C[C@H](O)[C@]12C` [deoxycholic acid, 3α,12α-dihydroxy-5β-cholanic acid], for which the “7-hydroxylated product of deoxycholic acid in culture supernatant” value is on record as “no indication of 7-hydroxylated products” in data set [2], “no indication of 7-hydroxylated products” in data set [3], “no indication of 7-hydroxylated products” in data set [4] and “a peak was noted the retention time of which corresponds to that of ursocholic acid” in data set [5].

The values are drawn from US12601000B2, “Method for the hydroxylation of steroids” (ANNIKKI GMBH, priority 2020, dated 2026).
